Measurements from patent US7585859B2, “PDE4B inhibitors and uses therefor” (Plexxikon, Inc., priority 2004, dated 2009).

Each molecule was assayed on TNF alpha production in LPS-stimulated human blood (Buffy coat) (assay: TNF alpha production by stimulation with LPS in whole blood cultures). Details: Homo sapiens; Table 1B, Formula I compounds; read-out: IC50 h TNFα.
Format: cell-based
Outline: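 Human buffy coat blood, diluted 1:8 in RPMI with 2.5% heat-inactivated FBS, preincubated 1 h at 37 °C with serially 1:3-diluted compounds, then stimulated with LPS (100 ng/ml final) for 4 h. Supernatant TNFα quantified by sandwich ELISA, absorbance at 450 nm; IC50 values derived.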
For `CC(C)Nc1sc(C(=O)c2cc(-c3ccc(Cl)cc3)no2)c(N)c1C#N` [Compound 1-212, 4-Amino-5-[3-(4-chloro-phenyl)-isoxazole-5-carbonyl]-2-isopropylamino-thiophene-3-carbonitrile], the IC50 was over 10 µM.
Molecule `CC(C)CNc1sc(C(=O)c2cc(-c3ccccc3)no2)c(N)c1C(N)=O` [Compound 1-236, 4-Amino-2-isobutylamino-5-(3-phenyl-isoxazole-5-carbonyl)-thiophene-3-carboxylic acid amide] has an IC50 of over 10 µM.
`N#Cc1c(Nc2ccccc2)sc(C(=O)C2CC2)c1N` [Compound 1-28, 4-Amino-5-cyclopropanecarbonyl-2-phenylamino-thiophene-3-carbonitrile] showed an IC50 of under 10 µM.
`CCOC(=O)c1c(NC2CCCC2)sc(C(=O)c2ccc(OC)cc2)c1N` [Compound 1-191, 4-Amino-2-cyclopentylamino-5-(4-methoxy-benzoyl)-thiophene-3-carboxylic acid ethyl ester] showed an IC50 of over 10 µM.
In the case of `N#Cc1c(Nc2ccccc2)sc(C(=O)c2cc(-c3ccccc3)no2)c1N` [Compound 1-192, 4-Amino-2-phenylamino-5-(3-phenyl-isoxazole-5-carbonyl)-thiophene-3-carbonitrile], the IC50 is reported as under 10 µM.
`CC(C)Nc1sc(C(=O)c2cc(-c3ccccc3)no2)c(N)c1C#N` [Compound 1-205, 4-Amino-2-isopropylamino-5-(3-phenyl-isoxazole-5-carbonyl)-thiophene-3-carbonitrile] gave an IC50 of over 10 µM.
`NC(=O)c1c(NC2CCCC2)sc(C(=O)c2cc(-c3ccccc3)no2)c1N` [Compound 1-251, 4-Amino-2-cyclopentylamino-5-(3-phenyl-isoxazole-5-carbonyl)-thiophene-3-carboxylic acid amide] was tested, and the IC50 was over 10 µM.
`COc1ccc(C(=O)c2sc(Nc3ccccc3)c(C#N)c2N)cc1` [Compound 1-31] showed an IC50 of under 10 µM.

Same assay, conditions: human whole blood, LPS 100 ng/ml; read-out: IC 50 vs. indicated assay h TNFα
Work on `Nc1nc(Nc2ccc(Cl)cc2)sc1C(=O)c1cccc(C(F)(F)F)c1` [Compound 2-23, [4-Amino-2-(4-chloro-phenylamino)-thiazol-5-yl]-(3-trifluoromethyl-phenyl)-methanone] yielded an IC50 of over 10 µM.
`Nc1nc(Nc2ccccc2F)sc1C(=O)c1cc(-c2ccccc2)no1` [Compound 2-6, [4-Amino-2-(2-fluoro-phenylamino)-thiazol-5-yl]-(3-phenyl-isoxazol-5-yl)-methanone] gave an IC50 of over 10 µM.
Molecule `Nc1nc(NC2CCCC2)sc1C(=O)c1cccc(Cl)c1` [Compound 2-80, (4-Amino-2-cyclopentylamino-thiazol-5-yl)-(3-chloro-phenyl)-methanone] has an IC50 of under 10 µM.
